Tests used:
NADPH oxidase = tested on: NADPH oxidase
Text: This leads to the formation of hypersensitive lesions in leaf tissue of resistant varieties after pathogen infection (incompatible interaction).

G6PDH = experiment: Inhibitor study with Glucosamine-6-P in tobacco leaves infected with P. nicotianae; type: in vivo
Text: The involvement of the oxidative pentose phosphate pathway (OPPP) in the oxidative burst of plants was shown by inhibitor studies with Glucosamine-6 phosphate (Glucosamine-6-P). This is a well-known competitive inhibitor for G6PDH (as described in Glaser B L and Brown D H: Purification and properties of D-glucose 6-phosphate dehydrogenase, J Biol Chem 216, pp 67-79 (1955)), the first enzyme of the OPPP, which transforms G6P into 6-phosphogluconolactone.
Hydrogen peroxide (H2O2) accumulation was detected by in situ staining with 3,3-diaminobenzidine (DAB) following a modified protocol of Thordal-Christensen H, Zhang Z G, Wei Y D, Collinge D B: Subcellular localization of H2O2 in plants: H2O2 accumulation in papillae and hypersensitive response during the barley-powdery mildew interaction, Plant J 11, pp 1187-1194 (1997). Leaves were placed in DAB solution (1 mg mL^−1, pH 3.8) for 6 h. A dark-brown polymerization product formed at sites where DAB reacts with H2O2 produced by the tissue. Incubations were stopped and leaf tissue was simultaneously cleared from chlorophyll by boiling in ethanol for 10 min.

[1] = tested on: Arabidopsis glucose-6-phosphate dehydrogenase P2 (At1g24280), recombinant enzyme with C-terminal Strep-tag; conditions: cited from earlier work
[2] = target: Arabidopsis thaliana glucose-6-phosphate dehydrogenase isoform At1g24280 (P2 class), N-terminally truncated without transit peptide (cP2, 5′ delta 195 bp) (Arabidopsis thaliana, UniProt Q8L743); experiment: biochemical
[3] = FIG. 2 bottom, infiltrated tobacco leaf

Arabidopsis thaliana glucose-6-phosphate dehydrogenase isoform At1g24280 (P2 class), N-terminally truncated without transit peptide (cP2, 5′ delta 195 bp), sequence (Q8L743 67-599): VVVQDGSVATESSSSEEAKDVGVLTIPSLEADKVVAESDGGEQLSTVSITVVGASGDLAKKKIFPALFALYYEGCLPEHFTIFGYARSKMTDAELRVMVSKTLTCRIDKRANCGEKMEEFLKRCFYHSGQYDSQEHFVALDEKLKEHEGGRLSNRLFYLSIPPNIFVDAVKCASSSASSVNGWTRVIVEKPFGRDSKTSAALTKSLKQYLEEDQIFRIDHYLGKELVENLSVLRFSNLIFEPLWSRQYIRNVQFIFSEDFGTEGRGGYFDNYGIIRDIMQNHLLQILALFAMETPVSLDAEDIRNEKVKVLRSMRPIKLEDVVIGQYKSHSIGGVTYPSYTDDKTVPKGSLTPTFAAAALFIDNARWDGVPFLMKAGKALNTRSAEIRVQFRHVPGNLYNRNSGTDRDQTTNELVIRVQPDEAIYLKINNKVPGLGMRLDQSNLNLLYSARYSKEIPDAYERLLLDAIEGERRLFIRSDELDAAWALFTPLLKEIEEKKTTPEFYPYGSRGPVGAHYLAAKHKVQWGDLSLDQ

For `c1ccc2c(c1)[I+]c1ccccc1-2` [DPI, diphenylene iodonium], the “defence-induced H2O2 production (DAB-staining) and formation of hypersensitive lesions” value (NADPH oxidase; [3]) was “Interference” and the “formation of hypersensitive lesions after infection with P. nicotianae” value (NADPH oxidase; tobacco leaves treated with 25-100 mM DPI) was “did not induce the formation of hypersensitive lesions”.
With `N[C@@H]1[C@@H](O)[C@H](O)[C@@H](COP(=O)(O)O)O[C@@H]1O` [GN6P, Glucosamine-6 phosphate] the “defence-induced H2O2 production (DAB-staining) and formation of hypersensitive lesions” value (G6PDH; [3]) was “Interference” and the “ROS production after infection with P. nicotianae” value (G6PDH; tobacco leaves treated with 25-50 mM GN6P) was “did not result in detectable ROS production”.
In the case of `NC(=O)c1ccc[n+]([C@@H]2O[C@H](COP(=O)(O)OP(=O)(O)OC[C@H]3O[C@@H](n4cnc5c(N)ncnc54)[C@H](OP(=O)(O)O)[C@@H]3O)[C@@H](O)[C@H]2O)c1` [NADP+, nicotinamide-dinucleotide phosphate, oxidized form], the Km ([1]; read-out: Km[NADP+], Wakao and Benning (2005)) is listed as 17 µM.
For `NC(=O)C1=CN([C@@H]2O[C@H](COP(=O)(O)OP(=O)(O)OC[C@H]3O[C@@H](n4cnc5c(N)ncnc54)[C@H](OP(=O)(O)O)[C@@H]3O)[C@@H](O)[C@H]2O)C=CC1` [NADPH, nicotinamide-dinucleotide phosphate, reduced form], the Ki [2] is listed as 4.6 µM and the Ki ([1]; Wakao and Benning (2005), read-out: Ki[NADPH]) is listed as 22 µM.

— US20110225663A1, “METHOD FOR PRODUCING EUKARYOTIC ORGANISMS WITH ENHANCED PATHOGEN RESISTANCE AND/OR RESISTANCE TO STRESS AND EUKARYOTIC TRANSGENIC ORGANISMS WITH ENHANCED PATHOGEN RESISTANCE AND/OR RESISTANCE TO STRESS” (WESTFAELISCHE WILHELMS-UNIVERSITAET MUENSTER, priority 2008, published 2011)
